Results on 52 compounds are retold here after patent US9120744B2, “Plasminogen activator inhibitor-1 inhibitors and methods of use thereof to modulate lipid metabolism” (THE REGENTS OF THE UNIVERSITY OF MICHIGAN, priority 2007, dated 2015).

Structures can show the parent of a compound that is named as a salt.

For one experiment, the target named is recombinant active human PAI-1 (Homo sapiens (Human), UniProt P05121). In words: β-trypsin screening assay for PAI-1 inhibitors.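 Further: fluorogenic readout with PAI-1 and β-trypsin at 10:1 molar ratio, untreated PAI-1 wells set as 100% PAI-1 activity and β-trypsin alone as 0%.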
Sequence of recombinant active human PAI-1 (P05121 24-402): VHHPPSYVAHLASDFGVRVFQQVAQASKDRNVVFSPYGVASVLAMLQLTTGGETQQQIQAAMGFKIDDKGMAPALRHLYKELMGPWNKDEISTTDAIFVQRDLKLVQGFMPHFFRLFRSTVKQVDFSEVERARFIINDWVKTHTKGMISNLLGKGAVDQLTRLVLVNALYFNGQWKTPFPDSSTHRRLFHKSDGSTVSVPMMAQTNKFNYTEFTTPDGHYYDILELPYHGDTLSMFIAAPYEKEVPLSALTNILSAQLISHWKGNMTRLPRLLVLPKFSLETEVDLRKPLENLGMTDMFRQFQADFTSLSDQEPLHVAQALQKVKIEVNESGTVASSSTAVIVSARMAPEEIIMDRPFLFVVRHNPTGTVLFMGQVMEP
Conditions: not given
The class given is biochemical.
`CN1[C@@H]2CC[C@H]1C[C@@H](OC(=O)c1c[nH]c3ccccc13)C2.Cl` [TROPISETRON HCl]: the “screening hit: restoration of β-trypsin activity” value (“screening hit: restoration” below) is recorded as “demonstrate PAI-1 inhibitor activity”.

`Cl.NCCc1ccc(O)c(O)c1` [DOPAMINE HYDROCHLORIDE]: the “screening hit: restoration” value is given as “demonstrate PAI-1 inhibitor activity”.

In the case of `CNCC[C@H](Oc1cccc2ccccc12)c1cccs1` [DULOXETINE HCl], the “screening hit: restoration” value is on record as “demonstrate PAI-1 inhibitor activity”.

Still in this experiment, the particulars now being: 10 μM compound; hit = more than 3 standard deviations above control.
Consider `CC12CC3CC(C)(C1)CC(N)(C3)C2` [MEMANTINE HYDROCHLORIDE], for which the “screening hit: restoration” value was “demonstrate PAI-1 inhibitor activity”. On the same count and under the same terms, in the case of `Cc1nc(C)c(Cl)c(O)c1Cl` [CLOPIDOL] it was “demonstrate PAI-1 inhibitor activity”; in that of `CCOc1nc2cccc(C(=O)OC(C)OC(=O)OC3CCCCC3)c2n1Cc1ccc(-c2ccccc2-c2nn[nH]n2)cc1` (stereo not shown) [CANDESARTAN CILEXTIL], “demonstrate PAI-1 inhibitor activity”; in that of `C[C@H]1COc2c(C3(N)CC3)c(F)cc3c(=O)c(C(=O)O)cn1c23` [PAZUFLOXACIN], “demonstrate PAI-1 inhibitor activity”. Still for that read-out and setting: next, `Oc1ccc2c(c1)OC[C@]1(O)Cc3cc(O)c(O)cc3[C@H]21` [BRAZILIN]: “demonstrate PAI-1 inhibitor activity”; `C=C1/C(=C\C=C2/CCC[C@@]3(C)[C@@H]2CC[C@H]3[C@H](C)/C=C/[C@@H](O)C2CC2)C[C@@H](O)C[C@H]1O` [CALCIPOTRIOL]: “demonstrate PAI-1 inhibitor activity”. Take `COc1c(Cl)c(C)c2c(c1Cl)OC(=O)c1c(C)c(Cl)c(O)c(Cl)c1O2` [DIPLOICIN]: the “screening hit: restoration” value is “demonstrate PAI-1 inhibitor activity”. As to `C[C@]12CCC(=O)C=C1C=C[C@@H]1[C@@H]2CC[C@@]2(C)[C@H]1CC[C@@]21CCC(=O)O1` [CANRENONE], the “screening hit: restoration” value is “demonstrate PAI-1 inhibitor activity”. Take `C=C1c2cccc(O)c2C(=O)C2=C(O)[C@]3(O)C(=O)C(C(N)=O)=C(O)[C@@H](N(C)C)[C@@H]3[C@@H](O)[C@H]12` [METHACYCLINE HYDROCHLORIDE]: the “screening hit: restoration” value is “demonstrate PAI-1 inhibitor activity”. The same measure, in the same setting: in the case of `COc1cc(C(=O)NS(=O)(=O)c2ccccc2C)ccc1Cc1cn(C)c2ccc(NC(=O)OC3CCCC3)cc12` [ZAFIRLUKAST] it was “demonstrate PAI-1 inhibitor activity”.

Take `COc1cc(-c2coc3cc(OCc4ccccc4)c(OC)c(O)c3c2=O)cc(OCc2ccccc2)c1OC` [IRIGENIN, DIBENZYL ETHER]: the “screening hit: restoration” value is on record as “demonstrate PAI-1 inhibitor activity”. In the case of `COc1ccc2[nH]cc(C3=CCNCC3)c2c1` [RU 24969], the “screening hit: restoration” value is recorded as “demonstrate PAI-1 inhibitor activity”. `Cl.N[C@H]1C(O)O[C@H](CO)[C@@H](O)[C@@H]1O` (stereo partly shown) [GLUCOSAMINE HYDROCHLORIDE]: the “screening hit: restoration” value is “demonstrate PAI-1 inhibitor activity”. Still for that read-out and setting: in the case of `NC(=O)OCC(COC(N)=O)c1ccccc1` [Felbamate] it was “demonstrate PAI-1 inhibitor activity”; in that of `CC1(C)S[C@@H]2[C@H](NC(=O)[C@H](NC(=O)N3CCNC3=O)c3ccccc3)C(=O)N2[C@H]1C(=O)[O-].[Na+]` [AZLOCILLIN SODIUM], “demonstrate PAI-1 inhibitor activity”; in that of `NCCC(=O)N[C@@H](Cc1c[nH]cn1)C(=O)O` [CARNOSINE], “demonstrate PAI-1 inhibitor activity”. The same measure, in the same setting: next, `O=c1cnn([C@H]2O[C@@H](CO)[C@H](O)[C@@H]2O)c(=O)[nH]1` (stereo in doubt) [6-AZAURIDINE]: “demonstrate PAI-1 inhibitor activity”. The same measure, in the same setting: next, `CC(C)=CCCC1(C)C=Cc2c(O)c3c(c(CC=C(C)C)c2O1)OC12C(=CCCC1C(C)(C)O[C@@]2(C/C=C(\C)C(=O)O)C(=O)O)C3=O` (stereo partly shown) [GARCINOLIC ACID]: “demonstrate PAI-1 inhibitor activity”. As for `CCCCCCCCCOc1ccc2[nH]cc(CCN)c2c1` [5-Nonyloxytryptamine], the “screening hit: restoration” value was “demonstrate PAI-1 inhibitor activity”. Consider `NCCc1cc(O)c(O)cc1O` [OXIDOPAMINE HYDROCHLORIDE], for which the “screening hit: restoration” value is given as “demonstrate PAI-1 inhibitor activity”. On the same count and under the same terms, next, `O=c1c(O)cccc2c([C@H]3Oc4cc(O)cc(O)c4C[C@H]3O)cc(O)c(O)c12` [THEAFLAVANIN]: “demonstrate PAI-1 inhibitor activity”; `CCOC(=O)N1CCC(=C2c3ccc(Cl)cc3CCc3cccnc32)CC1` [LORATADINE]: “demonstrate PAI-1 inhibitor activity”. Still for that read-out and setting: next, `NC(=O)N1c2ccccc2CC(=O)c2ccccc21` [OXCARBAZEPINE]: “demonstrate PAI-1 inhibitor activity”; `C=C[C@@](C)(O)CC[C@H]1C(=C)C[C@H](O)[C@H]2C(C)(C)CCC[C@]12C` [LARIXOL]: “demonstrate PAI-1 inhibitor activity”; `NCC1CCC(C(=O)Oc2ccc(CCC(=O)O)cc2)CC1` (stereo not shown) [CETRAXATE HCl]: “demonstrate PAI-1 inhibitor activity”. Turning to `CC12CCC3C(CCC4(O)CC(O)CCC34/C=N/NC(N)=O)C1(O)CCC2C1=CC(=O)OC1` (stereo not shown) [STROPHANTHIDIN SEMICARBAZIDE], the “screening hit: restoration” value is recorded as “demonstrate PAI-1 inhibitor activity”. Same read-out and setting: next, `O=C1Nc2ccc(Cl)cc2[C@@](C#CC2CC2)(C(F)(F)F)O1` [EFAVIRENZ]: “demonstrate PAI-1 inhibitor activity”; `CC(=O)Oc1cc(-c2coc3cc(OC(C)=O)c(OC(C)=O)c(OC(C)=O)c3c2=O)cc(OC(C)=O)c1OC(C)=O` [IRIGINOL HEXAACEATATE]: “demonstrate PAI-1 inhibitor activity”; `O=C(O[C@@H]1Cc2c(O)cc(O)cc2O[C@@H]1c1ccc(O)c(O)c1)c1cc(O)c(O)c(O)c1` [EPICATECHIN MONOGALLATE]: “demonstrate PAI-1 inhibitor activity”. Same read-out and setting: in the case of `CCOC(=O)c1ccc(OC(=O)CCCCCN=C(N)N)cc1.CS(=O)(=O)O` [GABEXATE MESYLATE] it was “demonstrate PAI-1 inhibitor activity”. As to `COc1ccc2c(=O)c(-c3cc4c(cc3OC)OCO4)coc2c1` [CUNEATIN METHYL ETHER], the “screening hit: restoration” value was “demonstrate PAI-1 inhibitor activity”. Still for that read-out and setting: in the case of `O=C1C=C2CC3(O)COc4c(ccc(O)c4O)C3=C2C=C1O` (stereo not shown) [HEMATEIN] it was “demonstrate PAI-1 inhibitor activity”; in that of `NC[C@H](O)c1ccc(O)c(O)c1` [NOREPINEPHRINE], “demonstrate PAI-1 inhibitor activity”. On the same count and under the same terms, next, `C[N+](C)(C)CCOC(N)=O` [CARBACHOL]: “demonstrate PAI-1 inhibitor activity”; `Oc1cc(O)c2c(c1)O[C@H](c1cc(O)c(O)c(O)c1)[C@H](O)C2` [EPIGALLOCATECHIN]: “demonstrate PAI-1 inhibitor activity”.

On to `O=c1c(O)cccc2cc(O)c(O)c(O)c12` [PURPUROGALLIN], for which the “screening hit: restoration” value is listed as “demonstrate PAI-1 inhibitor activity”. As for `Cc1cc(O)c(C=O)c2c1C(=O)Oc1c(C)c(O)c3c(c1O2)C(O)OC3=O` (stereo not shown) [NORSTICTIC ACID], the “screening hit: restoration” value is on record as “demonstrate PAI-1 inhibitor activity”. In the case of `CC(C)C[C@H](NC(=O)[C@@H](O)[C@H](N)Cc1ccccc1)C(=O)O` [BESTATIN], the “screening hit: restoration” value is given as “demonstrate PAI-1 inhibitor activity”. On to `O=c1c(-c2cc(O)c(O)c(O)c2)coc2cc(O)c(O)c(O)c12` [IRIGENOL], for which the “screening hit: restoration” value was “demonstrate PAI-1 inhibitor activity”. Still for that read-out and setting: in the case of `CCN(CC)C(=O)N1CCN(C)CC1` [DIETHYLCARBAMAZINE CITRATE] it was “demonstrate PAI-1 inhibitor activity”.

As to `CC[C@@]1(O)C[C@@H]2CN(CCc3c([nH]c4ccccc34)[C@](C(=O)OC)(c3cc4c(cc3OC)N(C)[C@@H]3[C@]45CCN4CC=C[C@@](CC)(C(O)[C@]3(O)C(N)=O)[C@H]45)C2)C1.O=S(=O)(O)O` (stereo partly shown) [VINDESINE SULFATE], the “screening hit: restoration” value is recorded as “demonstrate PAI-1 inhibitor activity”. In the case of `CC[C@@]1(O)C[C@H](O[C@H]2C[C@H](N(C)C)[C@H](O)[C@H](C)O2)c2c(cc3c(c2O)C(=O)c2c(O)cccc2C3=O)[C@H]1C(=O)OC` [AKLAVINE HYDROCHLORIDE], the “screening hit: restoration” value was “demonstrate PAI-1 inhibitor activity”. Same read-out and setting: in the case of `Cc1onc(-c2ccccc2)c1-c1ccc(S(N)(=O)=O)cc1` [VALDECOXIB] it was “demonstrate PAI-1 inhibitor activity”; in that of `CC(C)c1ccc2c(c1)c(SC(C)(C)C)c(CC(C)(C)C(=O)O)n2Cc1ccc(Cl)cc1` [1H-Indole-2-propanoic acid, 1-[(4-chlorophenyl)methyl]-3-[(1,1-dimethylethyl)thio]-Alpha,Alpha-dimethyl-5-(1-methylethyl)-], “demonstrate PAI-1 inhibitor activity”; in that of `CCOc1ccc(C(=O)c2ccc(O)c(O)c2O)cc1` [2,3,4-TRIHYDROXY-4′-ETHOXYBENZOPHENONE], “demonstrate PAI-1 inhibitor activity”. On the same count and under the same terms, next, `C=C[C@H]1CN2CC[C@H]1C[C@H]2[C@H](OC(=O)OCC)c1ccnc2ccc(OC)cc12` [QUININE ETHYL CARBONATE]: “demonstrate PAI-1 inhibitor activity”.

With `NC(CO)C(=O)NNCc1ccc(O)c(O)c1O` (stereo not shown) [BENSERAZIDE HYDROCHLORIDE], the “screening hit: restoration” value is “demonstrate PAI-1 inhibitor activity”. On the same count and under the same terms, next, `CCN(CC)CCOc1ccc(C(=C(Cl)c2ccccc2)c2ccccc2)cc1` [CLOMIPHENE CITRATE]: “demonstrate PAI-1 inhibitor activity”; `O=c1c(O)c(-c2ccc(O)c(O)c2)oc2cc(O)ccc12` [NSC 407010]: “demonstrate PAI-1 inhibitor activity”.
